The target in one experiment is human DGKα (Homo sapiens (Human), UniProt P23743). Nature of the experiment: biochemical. Particulars: detergent/lipid micelle substrate; read-out: DGKα IC50. The method in brief:
(§1)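 Full-length human DGKζ (and DGKα), C-terminal His-tagged, Sf9-expressed, with phosphatidylserine/DAG micelles in 50 mM octyl glucoside; buffer 50 mM MOPS pH 7.5, 100 mM NaCl, 10 mM MgCl2, 1 μM CaCl2, 1 mM DTT.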

Experiment [1] deals with pre-activated CD4 T cells and Raji cells. Kind of experiment: Raji CD4 T Cell IL2 Assay. Particulars: Homo sapiens, Raji. The format is cell-based.
Another experiment concerns the target human DGKζ (Homo sapiens (Human), UniProt Q13574). Kind of experiment: DGKζ assay (detergent/lipid micelle substrate). The format is biochemical. The following applies: detergent/lipid micelle substrate; read-out: DGKζ IC50. The method in brief:
as §1

Chain of human DGKζ (Q13574 other isoform, or with tags, fused parts or gaps): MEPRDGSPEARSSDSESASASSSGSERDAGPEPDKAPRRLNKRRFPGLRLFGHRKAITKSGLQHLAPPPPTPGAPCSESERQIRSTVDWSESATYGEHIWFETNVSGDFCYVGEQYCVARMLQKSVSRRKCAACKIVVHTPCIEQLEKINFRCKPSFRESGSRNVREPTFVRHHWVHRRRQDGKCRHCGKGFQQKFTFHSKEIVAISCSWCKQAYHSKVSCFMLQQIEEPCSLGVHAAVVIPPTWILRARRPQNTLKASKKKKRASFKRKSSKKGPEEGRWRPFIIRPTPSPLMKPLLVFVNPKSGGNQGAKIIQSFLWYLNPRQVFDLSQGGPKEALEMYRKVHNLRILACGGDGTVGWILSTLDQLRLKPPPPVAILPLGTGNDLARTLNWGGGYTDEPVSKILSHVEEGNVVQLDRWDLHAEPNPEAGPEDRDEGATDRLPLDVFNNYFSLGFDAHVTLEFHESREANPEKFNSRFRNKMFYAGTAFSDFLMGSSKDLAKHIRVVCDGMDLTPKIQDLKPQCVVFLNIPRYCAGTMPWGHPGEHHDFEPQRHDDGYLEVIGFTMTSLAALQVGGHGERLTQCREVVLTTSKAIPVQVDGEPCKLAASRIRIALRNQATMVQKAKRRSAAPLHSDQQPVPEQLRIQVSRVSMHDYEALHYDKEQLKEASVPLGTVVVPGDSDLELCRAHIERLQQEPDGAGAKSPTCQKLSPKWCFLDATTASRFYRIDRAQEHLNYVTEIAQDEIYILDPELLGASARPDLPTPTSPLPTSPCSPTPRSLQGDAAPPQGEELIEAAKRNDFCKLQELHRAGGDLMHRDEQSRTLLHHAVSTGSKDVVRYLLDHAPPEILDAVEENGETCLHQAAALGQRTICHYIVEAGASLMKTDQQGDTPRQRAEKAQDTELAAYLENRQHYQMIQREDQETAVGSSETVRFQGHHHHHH
Chain of human DGKα (P23743 other isoform, or with tags, fused parts or gaps): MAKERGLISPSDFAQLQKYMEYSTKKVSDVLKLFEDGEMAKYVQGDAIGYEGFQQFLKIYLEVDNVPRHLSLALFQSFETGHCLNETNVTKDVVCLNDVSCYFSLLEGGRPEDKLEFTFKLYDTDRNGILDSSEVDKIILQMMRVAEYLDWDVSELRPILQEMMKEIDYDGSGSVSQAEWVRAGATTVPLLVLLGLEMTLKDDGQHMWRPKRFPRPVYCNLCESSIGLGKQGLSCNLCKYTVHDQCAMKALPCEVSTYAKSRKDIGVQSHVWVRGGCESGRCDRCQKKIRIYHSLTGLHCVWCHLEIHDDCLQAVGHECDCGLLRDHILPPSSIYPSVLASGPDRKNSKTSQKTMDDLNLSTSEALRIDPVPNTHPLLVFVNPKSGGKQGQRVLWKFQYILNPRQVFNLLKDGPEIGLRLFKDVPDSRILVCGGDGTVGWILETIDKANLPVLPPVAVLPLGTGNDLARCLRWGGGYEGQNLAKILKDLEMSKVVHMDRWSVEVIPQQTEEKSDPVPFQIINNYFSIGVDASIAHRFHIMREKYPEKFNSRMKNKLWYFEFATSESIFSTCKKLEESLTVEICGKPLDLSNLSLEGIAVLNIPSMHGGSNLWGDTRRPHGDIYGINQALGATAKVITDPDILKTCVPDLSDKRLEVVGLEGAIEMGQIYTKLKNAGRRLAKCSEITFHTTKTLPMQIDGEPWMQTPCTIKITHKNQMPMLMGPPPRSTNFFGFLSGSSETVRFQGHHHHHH

Broadly, the IC50 is the point on the concentration scale where inhibition reaches its midpoint. Turning to `Cn1c(=O)c(C#N)c(N2CCN(Cc3ccccc3NC(=O)Nc3ccccc3)CC2)c2nc(Br)ccc21` [Example 214, 1-(2-((4-(6-bromo-3-cyano-1-methyl-2-oxo-1,2-dihydro-1,5-naphthyridin-4-yl)piperazin-1-yl)methyl)phenyl)-3-phenylurea], the IC50 is 3100 nM on human DGKα, 550 nM in experiment [1] and greater than 81000 nM at human DGKζ.
`CC(=O)Nc1ccccc1CN1CCN(c2c(C#N)c(=O)n(C)c3ccc(Br)nc23)CC1` [Example 215, N-(2-((4-(6-bromo-3-cyano-1-methyl-2-oxo-1,2-dihydro-1,5-naphthyridin-4-yl)piperazin-1-yl)methyl)phenyl)acetamide]: the half-maximal inhibitory concentration (IC50) at human DGKα is 4100 nM; in experiment [1], 480 nM; at human DGKζ it was greater than 81000 nM.
As to `CCn1ccc2c(CN3CCN(c4c(C#N)c(=O)n(C)c5ccc(Cl)nc45)CC3)cccc21` [Example 220, 6-chloro-4-(4-((1-ethyl-1H-indol-4-yl)methyl)piperazin-1-yl)-1-methyl-2-oxo-1,2-dihydro-1,5-naphthyridine-3-carbonitrile], the values for the IC50 (at human DGKα; in experiment [1]; on human DGKζ) were 1700 nM, 63 nM and 89000 nM, respectively.
`Cn1c(=O)c(Br)c(N2CCN(C(c3ccc(F)cc3)c3ccc(F)cc3)CC2)c2ncccc21` [Example 230, 4-(4-(bis(4-fluorophenyl)methyl)piperazin-1-yl)-3-bromo-1-methyl-1,5-naphthyridin-2(1H)-one]: the figures for the half-inhibitory concentration (IC50) (on human DGKα; in experiment [1]; on human DGKζ) were 8800 nM, 3600 nM and greater than 240000 nM, respectively.
As to `CN(C)C(=O)c1ccc2c(n1)c(N1CCN(C(c3ccc(F)cc3)c3ccc(F)cc3)CC1)c(C#N)c(=O)n2C` [Example 231, 8-(4-(bis(4-fluorophenyl)methyl)piperazin-1-yl)-7-cyano-N,N,5-trimethyl-6-oxo-5,6-dihydro-1,5-naphthyridine-2-carboxamide], the IC50 on human DGKα was 170000 nM; in experiment [1], 3000 nM; on human DGKζ it was greater than 240000 nM.
As for `Cc1ccc2c(n1)c(N1CCN(C(c3ccc(F)cc3)c3ccc(F)cc3)CC1)c(C(F)(F)F)c(=O)n2C` [Example 232, 4-(4-(bis(4-fluorophenyl)methyl)piperazin-1-yl)-1,6-dimethyl-3-(trifluoromethyl)-1,5-naphthyridin-2(1H)-one], the IC50 at human DGKα was 150000 nM; in experiment [1], 1100 nM; at human DGKζ, greater than 240000 nM.
For `COCCn1c(=O)c([N+](=O)[O-])c(N2CCN(C(c3ccccc3)c3ccccc3)CC2)c2ncccc21` [Example 244, 4-[4-(diphenylmethyl)piperazin-1-yl]-1-(2-methoxyethyl)-3-nitro-1,2-dihydro-1,5-naphthyridin-2-one], the IC50 on human DGKα was 32000 nM; in experiment [1], 690 nM; at human DGKζ, greater than 81000 nM.
As to `Cc1ccc2c(n1)c(N1CCN(Cc3cc(OC(F)(F)F)ccc3O)CC1)c(C#N)c(=O)n2C` [Example 262, 4-(4-{[2-hydroxy-5-(trifluoromethoxy)phenyl]methyl}piperazin-1-yl)-1,6-dimethyl-2-oxo-1,2-dihydro-1,5-naphthyridine-3-carbonitrile], the IC50 on human DGKα was 520 nM; in experiment [1], 28 nM; on human DGKζ, greater than 240000 nM.
Take `COc1cccc(O)c1CN1CCN(c2c(C#N)c(=O)n(C)c3ccc(Cl)nc23)CC1` [Example 264, 6-chloro-4-{4-[(2-hydroxy-6-methoxyphenyl)methyl]piperazin-1-yl}-1-methyl-2-oxo-1,2-dihydro-1,5-naphthyridine-3-carbonitrile]: the values for the IC50 (at human DGKα; in experiment [1]; at human DGKζ) were 620 nM, 36 nM and greater than 240000 nM, respectively.
Take `Cn1c(=O)c(C#N)c(N2CCN(Cc3ccc(OC(F)(F)F)cc3O)CC2)c2nc(C#N)ccc21` [Example 265, 8-(4-{[2-hydroxy-4-(trifluoromethoxy)phenyl]methyl}piperazin-1-yl)-5-methyl-6-oxo-5,6-dihydro-1,5-naphthyridine-2,7-dicarbonitrile]: the figures for the IC50 (at human DGKα; in experiment [1]; at human DGKζ) were 34 nM, 39 nM and 36000 nM, respectively.
On to `Cn1c(=O)c(C#N)c(N2CCN(Cc3c(O)cccc3Cl)CC2)c2nc(Cl)ccc21` [Example 267, 6-chloro-4-{4-[(2-chloro-6-hydroxyphenyl)methyl]piperazin-1-yl}-1-methyl-2-oxo-1,2-dihydro-1,5-naphthyridine-3-carbonitrile], for which the IC50 at human DGKα was 310 nM; in experiment [1] it was 48 nM; on human DGKζ, greater than 240000 nM.
On the same counts, the results for `Cn1c(=O)c(C#N)c(N2CCN(Cc3cccc(Br)c3O)CC2)c2nc(Cl)ccc21` [Example 268, 4-{4-[(3-bromo-2-hydroxyphenyl)methyl]piperazin-1-yl}-6-chloro-1-methyl-2-oxo-1,2-dihydro-1,5-naphthyridine-3-carbonitrile] are 680 nM, 51 nM and 120000 nM.
Turning to `Cn1c(=O)c(C#N)c(N2CCN(Cc3cc(OC(F)(F)F)ccc3O)CC2)c2nc(Br)ccc21` [Example 270, 6-bromo-4-(4-{[2-hydroxy-5-(trifluoromethoxy)phenyl]methyl}piperazin-1-yl)-1-methyl-2-oxo-1,2-dihydro-1,5-naphthyridine-3-carbonitrile], the IC50 on human DGKα is 190 nM; in experiment [1] it was 59 nM; on human DGKζ it was greater than 240000 nM.
As for `Cn1c(=O)c(C#N)c(N2CCN(Cc3c(O)cccc3Br)CC2)c2nc(Br)ccc21` [Example 271, 6-bromo-4-{4-[(2-bromo-6-hydroxyphenyl)methyl]piperazin-1-yl}-1-methyl-2-oxo-1,2-dihydro-1,5-naphthyridine-3-carbonitrile], the concentration for half-maximal inhibition (IC50) on human DGKα was 1100 nM; in experiment [1] it was 61 nM; on human DGKζ, 110000 nM.
On the same counts, the results for `Cn1c(=O)c(C#N)c(N2CCN(Cc3ccc(Br)cc3O)CC2)c2nc(Cl)ccc21` [Example 276, 4-{4-[(4-bromo-2-hydroxyphenyl)methyl]piperazin-1-yl}-6-chloro-1-methyl-2-oxo-1,2-dihydro-1,5-naphthyridine-3-carbonitrile] are 12 nM, 79 nM and greater than 240000 nM.
In the same order, the values of `Cn1c(=O)c(C#N)c(N2CCN(Cc3cccc(Cl)c3O)CC2)c2nc(Br)ccc21` [Example 278, 6-bromo-4-{4-[(3-chloro-2-hydroxyphenyl)methyl]piperazin-1-yl}-1-methyl-2-oxo-1,2-dihydro-1,5-naphthyridine-3-carbonitrile] are 350 nM, 87 nM and greater than 81000 nM.
Turning to `Cn1c(=O)c(C#N)c(N2CCN(Cc3c(O)cccc3F)CC2)c2nc(Cl)ccc21` [Example 280, 6-chloro-4-{4-[(2-fluoro-6-hydroxyphenyl)methyl]piperazin-1-yl}-1-methyl-2-oxo-1,2-dihydro-1,5-naphthyridine-3-carbonitrile], the values for the IC50 (on human DGKα; in experiment [1]; at human DGKζ) were 76 nM, 92 nM and greater than 240000 nM, respectively.
Turning to `Cn1c(=O)c(C#N)c(N2CCN(Cc3cc(Br)ccc3O)CC2)c2nc(Br)ccc21` [Example 282, 6-bromo-4-{4-[(5-bromo-2-hydroxyphenyl)methyl]piperazin-1-yl}-1-methyl-2-oxo-1,2-dihydro-1,5-naphthyridine-3-carbonitrile], the values for the IC50 (on human DGKα; in experiment [1]; on human DGKζ) were 220 nM, 94 nM and greater than 240000 nM, respectively.

These data come from US11866430B2, “Naphthyridinone compounds useful as T cell activators” (priority 2018, dated 2024).
